From the supplement of paper PMC11061612

Key:
[1] = system: SK-MM-2 (Plasma Cell Myeloma); assay: combination Emax (second highest fraction inhibited in the dose matrix, 72 h); higher = more inhibition; extreme values may be limits of the assay
In short: (§1)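 Cell lines grown in DMEM/F12 or RPMI with 10% FBS were plated in 1536-well plates and held 24 hours at 37°C, 5% CO2 before 72 hours of exposure to two-drug dose matrices, with DMSO typically at 0.2%. CellTiter-Glo 2.0 luminescence gave viability, which was converted to inhibition. Vehicle wells were set to 0 and blank wells to 1. Combination Emax is the second-highest inhibition in the matrix, and Bliss excess is the observed combination effect minus the expected EA + EB − EA·EB, where EA and EB are the single-agent effects.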

[2] = system: LOUCY (T-Lymphoblastic Leukemia); assay: as above
In short: as §1

[3] = system: SW684 (Other Solid Carcinomas); assay: as above
In short: as §1

[4] = system: NCI-H810 (Non-Small Cell Lung Carcinoma); assay: as above
In short: as §1

[5] = system: HCC-44 (Lung Adenocarcinoma); assay: as above
In short: as §1

KYM-1 (Rhabdomyosarcoma) [6] = assay: as above
In short: as §1

[7] = system: CML-T1 (Chronic Myelogenous Leukemia); assay: as above
In short: as §1

CHL-1 (Melanoma) [8] = assay: as above
In short: as §1

[9] = system: RMG-I (Ovarian Carcinoma); assay: as above
In short: as §1

[10] = system: COLO-684 (Endometrial Carcinoma); assay: as above
In short: as §1

[11] = system: LAMA-84 (Chronic Myelogenous Leukemia); assay: as above
In short: as §1

[12] = system: NCI-H1755 (Lung Adenocarcinoma); assay: as above
In short: as §1

[13] = system: FLO-1 (Esophageal Adenocarcinoma); assay: as above
In short: as §1

[14] = system: Becker (Low Grade Glioma); assay: as above
In short: as §1

[15] = system: EB-3 (Burkitt's Lymphoma); assay: as above
In short: as §1

[16] = system: KYSE-70 (Esophageal Squamous Cell Carcinoma); assay: as above
In short: as §1

[17] = system: NKM-1 (Acute Myeloid Leukemia); assay: as above
In short: as §1

[18] = system: PANC-02-03 (Pancreatic Carcinoma); assay: as above
In short: as §1

[19] = system: OV-90 (Ovarian Carcinoma); assay: as above
In short: as §1

[20] = system: PC-14 (Lung Adenocarcinoma); assay: as above
In short: as §1

[21] = system: SK-MM-2 (Plasma Cell Myeloma); assay: Bliss excess, mean over the matrix (fraction); higher = more synergy
In short: as §1

[22] = system: LOUCY (T-Lymphoblastic Leukemia); assay: as above
In short: as §1

[23] = system: SW684 (Other Solid Carcinomas); assay: as above
In short: as §1

[24] = system: NCI-H810 (Non-Small Cell Lung Carcinoma); assay: as above
In short: as §1

[25] = system: HCC-44 (Lung Adenocarcinoma); assay: as above
In short: as §1

KYM-1 (Rhabdomyosarcoma) [26] = assay: as above
In short: as §1

[27] = system: CML-T1 (Chronic Myelogenous Leukemia); assay: as above
In short: as §1

CHL-1 (Melanoma) [28] = assay: as above
In short: as §1

[29] = system: RMG-I (Ovarian Carcinoma); assay: as above
In short: as §1

[30] = system: COLO-684 (Endometrial Carcinoma); assay: as above
In short: as §1

[31] = system: LAMA-84 (Chronic Myelogenous Leukemia); assay: as above
In short: as §1

[32] = system: NCI-H1755 (Lung Adenocarcinoma); assay: as above
In short: as §1

[33] = system: FLO-1 (Esophageal Adenocarcinoma); assay: as above
In short: as §1

[34] = system: Becker (Low Grade Glioma); assay: as above
In short: as §1

[35] = system: EB-3 (Burkitt's Lymphoma); assay: as above
In short: as §1

[36] = system: KYSE-70 (Esophageal Squamous Cell Carcinoma); assay: as above
In short: as §1

[37] = system: NKM-1 (Acute Myeloid Leukemia); assay: as above
In short: as §1

[38] = system: PANC-02-03 (Pancreatic Carcinoma); assay: as above
In short: as §1

[39] = system: OV-90 (Ovarian Carcinoma); assay: as above
In short: as §1

[40] = system: PC-14 (Lung Adenocarcinoma); assay: as above
In short: as §1
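Throughout, for Bliss excess, mean over the matrix: after 72 h of two-drug dosing.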

Compound | combination Emax [1] | combination Emax [2] | combination Emax [3] | combination Emax [4] | combination Emax [5] | combination Emax (KYM-1 (Rhabdomyosarcoma) [6]) | combination Emax [7] | combination Emax (CHL-1 (Melanoma) [8]) | combination Emax [9] | combination Emax [10] | combination Emax [11] | combination Emax [12] | combination Emax [13] | combination Emax [14] | combination Emax [15] | combination Emax [16] | combination Emax [17] | combination Emax [18] | combination Emax [19] | combination Emax [20] | Bliss excess [21] | Bliss excess [22] | Bliss excess [23] | Bliss excess [24] | Bliss excess [25] | Bliss excess (KYM-1 (Rhabdomyosarcoma) [26]) | Bliss excess [27] | Bliss excess (CHL-1 (Melanoma) [28]) | Bliss excess [29] | Bliss excess [30] | Bliss excess [31] | Bliss excess [32] | Bliss excess [33] | Bliss excess [34] | Bliss excess [35] | Bliss excess [36] | Bliss excess [37] | Bliss excess [38] | Bliss excess [39] | Bliss excess [40]
O=C(c1cc(Cc2n[nH]c(=O)c3ccccc23)ccc1F)N1CCN(C(=O)C2CC2)CC1 [Olaparib] + CN(CC[C@H](CSC1=CC=CC=C1)NC2=C(C=C(C=C2)S(=O)(=O)NC(=O)C3=CC=C(C=C3)N4CCC(CC4)[C@H](C5=CC=CC=C5C6=CC=C(C=C6)Cl)O)S(=O)(=O)C(F)(F)F)CCO [AZD4320] (first compound max 10 µM, 7x7, partner max 1 µM) | 1 | 1 | 0.228 | 0.659 | 0.173 | 0.576 | 0.999 | 0.2 | 0.534 | 0.213 | 0.617 | 0.159 | 0.39 | 0.164 | 0.158 | 0.151 | 1 | 0.198 | 0.546 | 0.199 | 0.0047 | -0.0261 | -0.0717 | -0.0701 | -0.0367 | -0.0543 | 0.0456 | -0.0175 | -0.0382 | -0.0372 | -0.0603 | -0.0387 | -0.0338 | 0.0148 | -0.0394 | -0.0377 | 0.0827 | -0.0488 | -0.0165 | -0.0113
O=C(c1cc(Cc2n[nH]c(=O)c3ccccc23)ccc1F)N1CCN(C(=O)C2CC2)CC1 [Olaparib] + COc1nnc2ccc(N3CCC(c4ccc(OCCN5CCN(C)C(=O)[C@H]5C)cc4)CC3)nn12 [AZD5153] (first compound max 10 µM, 7x7, partner max 1 µM) | 0.875 | 0.749 | 0.415 | 0.671 | 0.593 | 0.862 | 0.852 | 0.418 | 0.536 | 0.564 | 0.8 | 0.498 | 0.575 | 0.397 | 0.694 | 0.389 | 0.898 | 0.591 | 0.402 | 0.431 | -0.032 | 0.0304 | -0.0857 | -0.0406 | -0.0341 | -0.0479 | -0.0113 | -0.0554 | -0.0288 | -0.0132 | -0.0335 | -0.0453 | -0.0174 | -0.0004 | -0.0549 | -0.0305 | -0.0231 | -0.0683 | -0.0144 | -0.0284
Cc1c2c(nn1C)CSCc1cc(n(C)n1)CSc1cc(c3ccccc3c1)OCCCc1c(C(=O)O)n(C)c3c-2c(Cl)ccc13 [AZD5991] + CS(=O)(=O)CCNCc1ccc(-c2ccc3ncnc(Nc4ccc(OCc5cccc(F)c5)c(Cl)c4)c3c2)o1 [Lapatinib] (first compound max 1 µM, 7x7, partner max 10 µM) | 0.115 | 0.688 | 0.177 | 0.261 | 0.352 | 0.589 | 0.24 | 0.835 | 0.532 | 0.421 | 0.165 | 0.755 | 0.537 | 0.277 | 0.6 | 0.177 | 0.995 | 0.368 | 0.247 | 0.963 | -0.0011 | 0.0351 | -0.116 | -0.0722 | -0.0301 | 0.0243 | 0.0228 | 0.0766 | 0.0088 | -0.114 | 0.0258 | -0.015 | -0.0454 | -0.0011 | -0.0068 | -0.0329 | -0.0148 | -0.0159 | -0.0817 | 0.0203
